Assay results as given in patent publication US20210228500A1, “CELLULAR RETINOID BINDING PROTEIN ANTAGONISTS AND USES THEREOF” (CASE WESTERN RESRVE UNIVERSITY, priority 2018, published 2021).
Entries after “also recorded” stand apart in the source; their conditions may differ.

What was measured:
[1] = system: Balb/cJ mice; experiment: Electroretinography (ERG) after photobleach; type: in vivo; details: 30 mg kg^−1; scotopic ERG 4 h after flash of light
Experimental: Before the ERG recording, dark-adapted Balb/cJ mice were anesthetized with 20 mg mL^−1 ketamine and 1.75 mg mL^−1 xylazine in PBS at a dose of 0.1-0.13 mL per 25 g of body weight, and pupils were dilated with 1% tropicamide. Contact lens electrodes were placed on the eyes, and a reference electrode was positioned between two ears, while ground electrode was placed on the tail. Scotopic ERGs were recorded for both eyes of each mouse using a UTAS E-3000 universal testing and ERG system (LKC Technologies).
To quantify the effect of the CRBP1 inhibitor on the recovery of visual sensitivity after a light stimulus, we measured full-field electroretinography (ERG) responses in mice. Prior to the illumination, the animals were either treated with DMSO (vehicle) or abn-CBD. Both drugs were administrated in a dose of 30 mg kg^−1. Scotopic ERG responses at varying light intensities were recorded 4 h after the exposure to a flash of light that photobleached ˜50% of the visual pigment. […] However, even in a relatively high dose used in this experiment, the inhibitor of CRBP1 had much smaller impact on the visual cycle without causing its blockage, as it was reported for retinylamine and emixustat.

[2] = Detection and quantification of abn-CBD in the ocular tissues; type: in vivo, Balb/cJ mice; details: single dose 15 mg kg^−1 i.p.
Experimental: Balb/cJ mice were i.p. injected with 15 mg kg^−1 dose of abn-CBD. At the time points between 1 and 15 h, they were deeply anesthetized by ketamine/xylazine injection and perfused with PBS. Perfused eyes were collected and homogenized in 1 mL of PBS/methanol (v/v). During the homogenization, 100 pmol of an internal standard (3d-abn-CBD) was added. The samples were extracted with 4 mL of hexane and centrifuged at 15,000 g for […] at 4° C. The organic solvent was transferred to glass test tubes and dried in a Savant speedvac concentrator (Thermo Fisher Scientific). The extracted compounds were dissolved in 0.3 mL of ethanol and subjected to LC/MS analysis and quantification as described above.

[3] = biological target: T1, holo-CRBP1 (Homo sapiens, UniProt P09455); experiment: Retinol replacement assay with repurification and LC/MS; type: binding
T1 construct: made in house
T1 sequence (P09455 1-135): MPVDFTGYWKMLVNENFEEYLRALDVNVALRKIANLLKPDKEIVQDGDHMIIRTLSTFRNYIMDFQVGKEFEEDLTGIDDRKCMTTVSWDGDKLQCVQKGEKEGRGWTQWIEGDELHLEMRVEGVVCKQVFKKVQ
Experimental: holo-CRBP1 (500 μg) in 0.5 mL (67 μM) was incubated with tested compound (1:2 molar ratio) delivered in ethanol in 20 mM Tris/HCl, pH 8.0, 200 mM NaCl, 5% glycerol (v/v) at RT for 15 min. The sample was then diluted with 10 mM Tris/HCl, pH 8.0 to the final volume of 5 mL, loaded onto HiTrap Q HP column, and eluted as described above. The elution profiles were monitored at both 280 and 325 nm to concurrently record signals for the protein and the retinoid moieties.
After incubation of apo- or holo-CRBP1 with abn-CBD, the protein was repurified on HiTrap Q HP column as described above. The protein fractions were collected, pooled together, and concentrated to 0.25 mL in an Amicon Ultra-4 centrifugal filter, cutoff 10,000 Da. For quantification purpose, 100 pmol of 3d-abn-CBD (internal standard) were added to the protein samples. To extract organic compounds associated with the repurified CRBP1, 0.25 mL of ethanol was added followed by 4 mL of hexane. […] Abn-CBD and its deuterated derivative were detected in the selected reaction monitoring (SRM) mode using m/z 315.2→221.2 and 318.2→224.1 transitions, respectively. Calibration curves were calculated based on the linear relationship between areas under SRM ion intensity for peaks corresponding to abn-CBD and the internal standard versus molar ratios of these compounds in a range from 20 to 500 pmol.

[4] = biological target: cannabinoid receptor 2 (Homo sapiens, UniProt P34972); details: cited from earlier work
Chain of cannabinoid receptor 2 (P34972 whole entry): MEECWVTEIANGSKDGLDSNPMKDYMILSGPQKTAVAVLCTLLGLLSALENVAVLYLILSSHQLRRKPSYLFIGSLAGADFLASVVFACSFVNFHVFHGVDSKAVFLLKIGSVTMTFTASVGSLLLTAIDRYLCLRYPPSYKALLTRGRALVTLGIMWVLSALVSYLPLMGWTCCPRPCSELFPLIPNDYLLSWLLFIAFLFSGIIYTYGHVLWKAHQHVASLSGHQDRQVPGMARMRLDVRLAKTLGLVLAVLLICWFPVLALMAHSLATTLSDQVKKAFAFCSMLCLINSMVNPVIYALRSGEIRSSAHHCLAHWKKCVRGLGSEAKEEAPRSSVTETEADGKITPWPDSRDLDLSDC

With `C=C(C)[C@@H]1CCC(C)=C[C@H]1c1c(O)cc(O)cc1CCCCC` [abn-CBD, 4-[(1R,6R)-3-Methyl-6-prop-1-en-2-ylcyclohex-2-en-1-yl]-5-pentylbenzene-1,3-diol] the “recovery of a-wave and b-wave amplitudes (dark adaptation)” value [1] was “slower; also recorded: slight delay in the dark adaptation”, the half-life ([2]; Balb/cJ, mouse, eye (PBS-perfused, homogenate), ip) was about 7 h and the “time of maximum ocular level after the injection” value [2] was 2 h. For the same molecule, the “ocular level, maximum value” ([2]; PBS-perfused eyes) was 58 pmol/eye, the “loss of atROL from holo-CRBP1 (absorbance at 325 nm)” value ([3]; holo-CRBP1 incubated with compound 1:2 molar ratio, repurified) was “diminished absorbance at 325 nm; also recorded: depletion of atROL” and the “replacement of atROL by ligand (ligand/protein quantification)” value ([3]; holo-CRBP1 with 2 molar excess of abn-CBD, LC/MS) was “proportional replacement of the retinoid by the cannabinoid”. The “interaction with cannabinoid receptor 2” value [4] was “does not interact”.
